According to patent US20210301038A1, “POLYSIALIC ACID AND DERIVATIVES THEREOF, PHARMACEUTICAL COMPOSITION AND METHOD OF PRODUCING POLYSIALIC ACID” (Medizinische Hochschule Hannover (MHH), priority 2018, published 2021):

Tested on: AAV-GFP-Tau[R406W]-injected mice
Assay: Recency test in AAV-GFP-Tau[R406W]-injected mice
Assay type: in vivo, mouse
Conditions: intranasal delivery
From the text: AAVs were produced using the AAV helper free packaging systems AAV-DJ (Cell Biolabs, Inc.). In short, HEK293 cells were transfected with the pAAV-DJ and pHelper constructs along with the viral expression constructs (pAAV vectors) encoding either eGFP or eGFP-Tau[R406W] under the control of a synapsin promotor. After three days, viruses were harvested using freeze-thaw cycles. After lysis, non-viral DNA is digested with Benzonase, and lysate is filtered through a 0.22 μm filter, washed with PBS and concentrated using Amicon Ultra-15 Centrifugal Filter Units with a cut off of 50 kDa. Titers were determined to be >10^10 GC/ml using quantitative Real-Time PCR with primers for the WPRE element in the viral genome.
For stereotaxic delivery of AAVs, mice were anesthetized in a closed chamber using isoflurane (1 ml for 30 s). […]
Animals were randomly assigned to treatment groups using a randomized block design to counterbalance differences in age. […] Novelty detection was evaluated by calculating the discrimination ratio as follows: [novel object time−familiar object time]/[novel object time+familiar object time]×100%. In the recency test, the discrimination ratio was calculated as follows: [least recent object time−most recent object time]/[least object time+most recent object time]×100%. […]

(α(2→8)Neu5Ac)12 [DP12]
rescue of impaired recent object recognition: fully rescued
